{"source": "paper PMC3982560", "about": "“Synthesis of fluorescent analogs of relaxin family peptides and their preliminary in vitro and in vivo characterization” (Frontiers in Chemistry, 2013)", "key": {"RXFP2": {"target": "T1, RXFP2 (Homo sapiens, UniProt Q8WXD0)", "T1 construct": "expressed in transfected cells; host or cells: HEK-293T (co-transfected with pCRE β-galactosidase reporter)", "experiment": "cAMP reporter gene assay (pCRE β-galactosidase)", "conditions": "cell-based assay, HEK-293T RXFP2", "experimental": "The ability of the Cy5.5-labeled insulin/relaxin family peptide analogs to stimulate cAMP production was evaluated using a cAMP reporter gene assay as described (Scott et al., [2006]). HEK-293T cells co-transfected with either RXFP1 or RXFP2 and a pCRE β-galactosidase reporter plasmid were plated in 96-well plates (Chen et al., [1995]). After 24 h, the co-transfected cells were incubated with increasing concentrations of relaxin analogs in parallel to 10 nM of H2 relaxin or INSL3 for RXFP1- or RXFP2- transfected cells, respectively. The amount of cAMP-driven β-galactosidase expression in each well was assessed with a colormetric assay measuring absorbance at 570 nm on a microplate spectrophotometer. Ligand-induced cAMP stimulation was expressed as a percentage of maximal response of H2 relaxin or INSL3 for RXFP1 and RXFP2 cells, respectively. Each data point was measured in triplicate and each experiment conducted independently at least three separate times. Statistical differences in pEC50 values were analyzed using One-Way ANOVA coupled to the Newman Keul's multiple comparison test for multiple group comparisons in GraphPad Prism 4."}, "[1]": {"system": "central RXFP1 activation (water drinking)", "experiment": "Drinking (dipsogenic) response after icv infusion", "type": "in vivo", "conditions": "adult male C57B/6J mice; single 4 μg dose icv in 4 μl aCSF; n = 3–4; observed 30 min", "text": "(§1) Adult male C57B/6J mice (10-weeks old) were deeply anesthetized by inhalation of 4% isoflurane and anaesthesia was maintained with 2% isoflurane administered at 0.2 l/min through a nasal cone. Mice were secured in a stereotaxic frame and an incision made to expose the skull, which was cleaned with 6% hydrogen peroxide. Two 1 mm-diameter holes were drilled in the skull on either side of the sagittal midline, 3 mm posterior and 3 mm lateral to bregma, to allow small screws (3 mm long) to be secured in order to anchor the guide cannula in place. A third hole of 1 mm in diameter was drilled through the skull to allow implantation of a stainless-steel guide cannula (11 mm long, 24 gauge) just above the lateral ventricle at the coordinates relative to bregma: anterior-posterior −0.46 mm; medial-lateral −0.8 mm; dorsal-ventral −1.8 mm. The guide cannula and screws were fixed in place by application of self-curing acrylic dental cement (Vertex-Dental, the Netherlands).\nAfter 5–10 days recovery post-surgery, mice were gently restrained and an injector was inserted through the guide cannula which protruded 0.5 mm into the lateral ventricle. A single 4 μg dose of each peptide (n = 3–4) was delivered in 4 μ l of artificial CSF (aCSF; 147 mM NaCl, 4 mM KCl, 0.85 mM MgCl2, and 2.3 mM CaCl2), over 1 min via a 10 μ l syringe (0.46 mm diameter) mounted on an infusion pump connected to the injector via polyethylene tubing. Following infusion, the injector was left in place for a further 15 s to prevent backflow of the infused peptide up the guide cannula.\nFollowing peptide infusion, mice were placed back in their clear-walled home cages for 30 min with access to water (and food) and filmed through the side of the cage for subsequent assessment of behavior. After 30 min, mice were killed by isoflurane inhalation overdose, decapitated, and brains were removed and “post-fixed” by immersion in chilled 4% PFA solution. […] Sections were viewed and images collected using a confocal laser scanning microscope, using laser light at λ of 633 nm, while light between λ of 650–750 nm was detected."}, "brain tissue": {"system": "brain tissue", "experiment": "Brain distribution of Cy5.5 fluorescence after icv infusion", "type": "in vivo", "conditions": "mice, 30 min after icv injection of 4 μg", "text": "as §1, with “Netherlands). […]” for “Netherlands).”\nFollowing peptide infusion, mice were placed back in their clear-walled home cages for 30 min with access to water (and food) and filmed through the side of the cage for subsequent assessment of behavior. […] Sections were viewed and images collected using a confocal laser scanning microscope, using laser light at λ of 633 nm, while light between λ of 650–750 nm was detected."}}}
{"smiles": "CCCC[N+]1=C(C=CC=CC=C2N(CCCCCC(=O)NCCCn3cc(C[C@H](N)C(=O)N[C@@H](CC(=O)O)C(=O)N[C@@H](CO)C(=O)N[C@@H](Cc4c[nH]c5ccccc45)C(=O)N[C@@H](CCSC)C(=O)N[C@@H](CCC(=O)O)C(=O)N[C@@H](CCC(=O)O)C(=O)N[C@H](C(=O)N[C@H](C(=O)N[C@@H](CCCCN)C(=O)N[C@@H](CC(C)C)C(=O)N[C@H]4CSSC[C@@H]5NC(=O)[C@@H](NC(=O)[C@H](CCCCN)NC(=O)[C@H](CC(N)=O)NC(=O)[C@H](C)NC(=O)[C@H](CC(C)C)NC(=O)[C@H](C)NC(=O)[C@H](CO)NC(=O)[C@H](Cc6ccc(O)cc6)NC(=O)[C@H](CC(C)C)NC(=O)[C@@H]6CCC(=O)N6)CSSC[C@H](NC(=O)CNC(=O)[C@H](C(C)C)NC(=O)[C@H](Cc6c[nH]cn6)NC5=O)C(=O)N[C@@H]([C@@H](C)O)C(=O)N[C@@H](CCCCN)C(=O)N[C@@H](CCCNC(=N)N)C(=O)N[C@@H](CO)C(=O)N[C@@H](CC(C)C)C(=O)N[C@@H](C)C(=O)N[C@@H](CCCNC(=N)N)C(=O)N[C@@H](Cc5ccccc5)C(=O)N[C@H](C(=O)O)CSSC[C@@H](C(=O)NCC(=O)N[C@@H](CCSC)C(=O)N[C@@H](CO)C(=O)N[C@H](C(=O)N[C@@H](Cc5c[nH]c6ccccc56)C(=O)N[C@@H](CO)C(=O)O)[C@@H](C)O)NC(=O)[C@H]([C@@H](C)CC)NC(=O)[C@H](C)NC(=O)[C@H]([C@@H](C)CC)NC(=O)[C@H](CCC(N)=O)NC(=O)[C@H](C)NC(=O)[C@H](CCCNC(=N)N)NC(=O)[C@H](C(C)C)NC(=O)[C@H](CC(C)C)NC(=O)[C@H](CCC(=O)O)NC(=O)[C@H](CCCNC(=N)N)NC(=O)CNC4=O)[C@@H](C)CC)C(C)C)nn3)c3ccc4ccccc4c3C2(C)C)C(C)(C)c2c1ccc1ccccc21", "note": "[Cy5.5-H2 relaxin]", "values": [{"measurement": "Activation of RXFP2 (in words)", "setting": "RXFP2", "result": "activated"}, {"measurement": "Drinking behavior after icv infusion (in words)", "setting": "[1]", "result": "stimulated a similar increase in drinking behavior"}, {"measurement": "Distance from the ventricle wall beyond which little or no Cy5.5 fluorescence was seen", "setting": "brain tissue; confocal microscopy", "result": "> 300", "unit": "μm"}, {"measurement": "Distribution of Cy5.5 fluorescence in brain (in words)", "setting": "brain tissue; confocal microscopy of 40 μm coronal sections", "result": "high levels of Cy5.5 were present within the ventricle wall and brain tissue proximal to the major cerebral ventricles"}]}
{"smiles": "CCCC[N+]1=C(C=CC=CC=C2N(CCCCCC(=O)NCCCn3cc(C[C@H](N)C(=O)N4CCC[C@H]4C(=O)N[C@H](C(=O)N4CCC[C@H]4C(=O)N[C@@H](CCC(=O)O)C(=O)N[C@@H](CCSC)C(=O)N[C@@H](CCCNC(=N)N)C(=O)N[C@@H](CCC(=O)O)C(=O)N[C@@H](CCCCN)C(=O)N[C@@H](CC(C)C)C(=O)N[C@H]4CSSC[C@@H]5NC(=O)[C@@H](NC(=O)[C@H](Cc6ccc(O)cc6)NC(=O)[C@H](CCCNC(=N)N)NC(=O)[C@H](C)NC(=O)[C@@H]6CCCN6C(=O)[C@H](CC(N)=O)NC(=O)[C@@H](NC(=O)[C@H](C)NC(=O)[C@H](C)NC(=O)[C@H](C)N)[C@@H](C)O)CSSC[C@H](NC(=O)CNC(=O)[C@H](CO)NC(=O)[C@H](CC(C)C)NC5=O)C(=O)N[C@@H]([C@@H](C)O)C(=O)N[C@@H](CCC(N)=O)C(=O)N[C@@H](CCC(N)=O)C(=O)N[C@@H](CC(=O)O)C(=O)N[C@@H](CC(C)C)C(=O)N[C@@H](CC(C)C)C(=O)N[C@@H]([C@@H](C)O)C(=O)N[C@@H](CC(C)C)C(=O)N[C@H](C(=O)N5CCC[C@H]5C(=O)N[C@@H](Cc5ccc(O)cc5)C(=O)O)CSSC[C@@H](C(=O)NCC(=O)NCC(=O)N5CCC[C@H]5C(=O)N[C@@H](CCCNC(=N)N)C(=O)N[C@@H](Cc5c[nH]c6ccccc56)C(=O)N[C@@H](CO)C(=O)N[C@H](C(=O)N[C@@H](CCC(=O)O)C(=O)N[C@@H](C)C(=O)O)[C@@H](C)O)NC(=O)[C@H](C(C)C)NC(=O)[C@H](CCCNC(=N)N)NC(=O)[C@H](C(C)C)NC(=O)[C@H](CC(C)C)NC(=O)[C@H](C)NC(=O)[C@H](CCCNC(=N)N)NC(=O)[C@H](C(C)C)NC(=O)[C@H](Cc5ccccc5)NC(=O)[C@H](Cc5c[nH]cn5)NC(=O)[C@H](Cc5c[nH]cn5)NC(=O)CNC4=O)[C@@H](C)O)nn3)c3ccc4ccccc4c3C2(C)C)C(C)(C)c2c1ccc1ccccc21", "note": "[Cy5.5-INSL3]", "values": [{"measurement": "Drinking behavior after icv infusion (in words)", "setting": "[1]", "result": "did not initiate a drinking response"}]}
{"smiles": "CCCC[N+]1=C(C=CC=CC=C2N(CCCCCC(=O)NCCCn3cc(C[C@H](N)C(=O)N[C@@H](CC(=O)O)C(=O)N[C@@H](CO)C(=O)N[C@@H](Cc4c[nH]c5ccccc45)C(=O)N[C@@H](CCSC)C(=O)N[C@@H](CCC(=O)O)C(=O)N[C@@H](CCC(=O)O)C(=O)N[C@H](C(=O)N[C@H](C(=O)N[C@@H](CCCCN)C(=O)N[C@@H](CC(C)C)C(=O)N[C@H]4CSSC[C@@H]5NC(=O)[C@@H](NC(=O)[C@H](CCCCN)NC(=O)[C@H](CC(N)=O)NC(=O)[C@H](C)NC(=O)[C@H](CC(C)C)NC(=O)[C@H](C)NC(=O)[C@@H](N)CO)CSSC[C@H](NC(=O)CNC(=O)[C@H](C(C)C)NC(=O)[C@H](Cc6c[nH]cn6)NC5=O)C(=O)N[C@@H]([C@@H](C)O)C(=O)N[C@@H](CCCCN)C(=O)N[C@@H](CCCNC(=N)N)C(=O)N[C@@H](CO)C(=O)N[C@@H](CC(C)C)C(=O)N[C@@H](C)C(=O)N[C@@H](CCCNC(=N)N)C(=O)N[C@@H](C)C(=O)N[C@H](C(=O)O)CSSC[C@@H](C(=O)NCC(=O)N[C@@H](CCSC)C(=O)N[C@@H](CO)C(=O)N[C@H](C(=O)N[C@@H](Cc5c[nH]c6ccccc56)C(=O)N[C@@H](CO)C(=O)O)[C@@H](C)O)NC(=O)[C@H]([C@@H](C)CC)NC(=O)[C@H](C)NC(=O)[C@H]([C@@H](C)CC)NC(=O)[C@H](CCC(N)=O)NC(=O)[C@H](C)NC(=O)[C@H](CCCNC(=N)N)NC(=O)[C@H](C(C)C)NC(=O)[C@H](CC(C)C)NC(=O)[C@H](CCC(=O)O)NC(=O)[C@H](CCCNC(=N)N)NC(=O)CNC4=O)[C@@H](C)CC)C(C)C)nn3)c3ccc4ccccc4c3C2(C)C)C(C)(C)c2c1ccc1ccccc21", "note": "[Cy5.5-H2:A(4-24)(F23A)]", "values": [{"measurement": "Drinking behavior after icv infusion (in words)", "setting": "[1]", "result": "stimulated a similar increase in drinking behavior"}]}
